The values that follow come from US20060002887A1, “Ionene oligomers and polymers” (Genzyme Corporation, priority 2002, published 2006).

Values after ≈ are worked out from the molar mass of the structure shown. Where only a bound is given, the exact number is not on record here.

Series [1] relates to A-549 lung epithelial cell line. As to the kind of experiment: Alamar Blue in vitro cytotoxicity. The format is cell-based. As for the experimental part:
The oligomers were screened for in vitro cytotoxicity following 18-24 hr exposure using the metabolic indicator Alamar Blue™ (Alamar Biosciences, Sacramento, Calif.) against the A-549 lung epithelial cell line according to the manufacturer's instructions. Briefly, flat-bottom polystyrene microtiter plates were seeded with 2×10^4 cells in Ham's F-12 medium (Invitrogen) containing 10% fetal bovine serum (FBS) and were incubated ˜48 hr at 37° C., until cells were confluent. Medium was then aspirated off and replaced with medium lacking FBS. The oligomers were added to the first row (final concentration 5 mg/ml) and serial 2-fold dilutions were prepared across the plate. Plates were incubated 18-24 hr at 37° C.; medium containing test compounds was aspirated off, wells were washed once with PBS and fresh medium (lacking FBS and phenol red) was added. Alamar Blue™ was added (final concentration 30%); cells were incubated 4 hr and absorbance was read at 570 nm. The IC50 was then calculated.
(§1) Poly(trimethylene dipyridine-alt-5-oxanonane) having a molecular weight 0.5-1 kDa was tested in A-549 lung epithelial cells to determine its IC50 value in comparison with tobramycin, a conventional antibiotic. In addition, the minimum inhibitory concentrations for the two compounds were determined in vitro for a number of bacterial strains and species. The results are as shown below, where all concentrations are expressed as μg/mL: […]

The subject of a further series is Burkholderia cepacia. As to the kind of experiment: MIC broth dilution assay. The format is cell-based. To be noted: B. cepacia, read-out: minimum inhibitory concentration. As for the experimental part: (§2) Both about 1-10 kDa fractions of poly(trimethylene dipyridine-alt-octane chloride) (TMDP-C8) and about 1.2 kDa poly(trimethylene dipyridine-alt-2,7-dihydroxyoctane chloride) (TMDP-C8(OH)2) have broad, though not identical antimicrobial activity.
as §1
Background: Broth dilution looks for growth in wells or tubes with falling amounts of substance.

For another series, the system named is Pseudomonas aeruginosa. As to the kind of experiment: MIC broth dilution assay. The format is cell-based. As for the experimental part:
as §2, §1

The next series concerns Staphylococcus aureus. Nature of the series: MIC broth dilution assay. The format is cell-based. As to conditions: S. aureus, read-out: minimum inhibitory concentration. The procedure: as §2, §1
Series [2] concerns Stenotrophomonas maltophilia. As to the kind of experiment: MIC broth dilution assay. The format is cell-based. As to conditions: S. maltophilia, read-out: minimum inhibitory concentration. The procedure:
as §2, §1

A further series has as its system P. aeruginosa. As to conditions: within 11 passages, published studies; cited from earlier work.
In another series the test system is MRSA. To be noted: over 15 passages, published studies; cited from earlier work.
On the set-up of series [3]: species or system pigs. To be noted: pig, in vivo. As for the experimental part: The non-substituted C8-containing compound TMDP-C8 (about 1-10 kDa) was tested at 10 mg/ml for its ability to reduce S. aureus infections introduced into dermal wounds in pigs.

As a reminder, the IC50 is the concentration at which inhibition is half-maximal. Low values mean higher potency, high ones lower potency.

In the case of `NC[C@H]1O[C@H](O[C@H]2[C@H](O)[C@@H](O[C@H]3O[C@H](CO)[C@@H](O)[C@H](N)[C@H]3O)[C@H](N)C[C@@H]2N)[C@H](N)C[C@@H]1O` [Tobramycin, tobramycin], in series [1] (Homo sapiens, A549, A-549 lung epithelial cells), inhibition was half-maximal at 5000 µg/mL (≈ 10700 µM) (IC50). For the same compound, the MIC is above 50 µg/mL in the series with Burkholderia cepacia; 0.39 µg/mL (≈ 0.834 µM) with Pseudomonas aeruginosa (Pseudomonas aeruginosa, P. aeruginosa G38, read-out: minimum inhibitory concentration); 0.195 µg/mL (≈ 0.417 µM) in the series with Staphylococcus aureus; 25 µg/mL (≈ 53.5 µM) in series [2]. The compound also gave a minimum inhibitory concentration in the series with Pseudomonas aeruginosa (P. aeruginosa PA01) of 0.39 µg/mL (≈ 0.834 µM).
For `CCn1cc(C(=O)O)c(=O)c2cc(F)c(N3CCNCC3)cc21` [norfloxacin], the “rise of MIC” value in the series with P. aeruginosa is listed as 10 fold; in the series on MRSA, 85 fold.
gentamicin: the “rise of MIC” value in the series with P. aeruginosa is 190 fold.
In the case of “poly(trimethylene dipyridine-alt-octane chloride) [TMDP-C8]”, in series [3], the “effect on wound healing” value is “did not inhibit or retard healing”.
With “poly(trimethylene dipyridine-alt-octane) [TMDP-C8 1-3k]”, in series [1], the “IC50, In vitro Cytotoxicity of Compounds Tested in First Rat Lung Study” value worked out at 322 µg/mL.
As to “poly(trimethylene dipyridine-alt-octane) [TMDP-C8 >1k]”, the “IC50, In vitro Cytotoxicity of Compounds Tested in First Rat Lung Study” value in series [1] turned out to be 30 µg/mL.
